# In patent publication US20260130933A1, “PHARMACEUTICAL COMPOSITION FOR PREVENTION OR TREATMENT OF NEPHROPATHY AND/OR DIABETES MELLITUS, COMPRISING ENAVOGLIFLOZIN” (DAEWOONG PHARMACEUTICAL CO., LTD., priority 2022, published 2026):
# Experiment: Example 3: phase 3 trial, enavogliflozin 0.3 mg vs dapagliflozin 10 mg once a day for 24 weeks added to metformin and gemigliptin in patients with type 2 diabetes (same endpoints, rescue drug)
# Assay type: in vivo, human
# Method: 1) when Metformin (≥1,000 mg/Day) was Administered at a Constant Dose for at Least 8 Weeks Prior to Pre-Visit (Pre-Screening) • Metformin (≥1,000 mg/day) and gemigliptin (50 mg/day) were co-administered during the 8-week stabilization period. […] 4) when Metformin (≥1,000 mg/Day) and Gemigliptin (50 mg/Day) were Co-Administered at Constant Doses for at Least 8 Weeks Prior to Pre-Visit (Prescreening) • Without a separate stabilization period, Pre-visit (pre-screening) was Visit 1 (screening).
# Subjects who met the inclusion/exclusion criteria continued to receive metformin and gemigliptin while receiving a placebo of the clinical trial drug in a single-blind (subject-blinded) state for a 2-week run-in period.
# Here, the randomized subjects were stratified according to the administration therapy (co-administration with two or less agents (one or two agents) or three or more agents) of a conventional hypoglycemic agent (before washout of another hypoglycemic agent) within 24 weeks prior to obtaining written informed consent and by an HbA1c value (<8% or ≥8%) at Visit 1 (screening) measured in the central laboratory.
# The randomized subjects were administered two tablets of the clinical trial drug corresponding to each administration group once a day, and then visited the institution at weeks 6, 12, 18, and 24 during the 24-week administration period to conduct efficacy and safety assessments. In addition, during the clinical trial period, they were instructed to exercise regularly and control their diet without changing their daily life patterns.
# • 1) Change in HbA1c at week 24 after administration of clinical trial drug compared to Visit 2 (randomization)
# • 1) Change in HbA1c at each time point of weeks 6, 12, and 18 after administration of clinical trial drug compared to Visit 2 (randomization) • 2) Change in FPG at each time point of weeks 6, 12, 18, and 24 after administration of clinical trial drug compared to Visit 2 (randomization) • 3) Proportion of subjects achieving HbA1c<7% at each time point of weeks 6, 12, 18, and 24 after administration of clinical trial drug • 4) Proportion of subjects achieving HbA1c<6.5% at each time point of weeks 6, 12, 18, and 24 after administration of clinical trial drug • 5) Proportion of subjects achieving therapeutic response (HbA1c change (HbA1c at Visit 2—HbA1c at each evaluation time point)>0.5% or HbA1c<7% at each evaluation time point compared to Visit 2 (randomization)) at each time point of weeks 6, 12, 18, and 24 after administration of clinical trial drug • 6) Proportion of subjects achieving therapeutic response (HbA1c change (HbA1c at Visit 2—HbA1c at each evaluation time point)>0.7% or HbA1c<7% at each evaluation time point compared to Visit 2 (randomization)) at each time point of weeks 6, 12, 18, and 24 after administration of clinical trial drug • 7) Proportion of subjects achieving therapeutic response (HbA1c change (HbA1c at Visit 2—HbA1c at each evaluation time point)>1% or HbA1c<7% at each evaluation time point compared to Visit 2 (randomization)) at each time point of weeks 6, 12, 18, and 24 after administration of clinical trial drug
# [1] = week 6, per-protocol set, enavogliflozin 0.3 mg, dapagliflozin 10 mg
# [2] = week 12, modified per-protocol set 1, enavogliflozin 0.3 mg, dapagliflozin 10 mg
# [3] = week 12, modified per-protocol set 2
# [4] = week 12, modified per-protocol set 2, enavogliflozin 0.3 mg, dapagliflozin 10 mg
# [5] = week 12, per-protocol set, enavogliflozin 0.3 mg, dapagliflozin 10 mg
compound,measurement,setting,value
"CCOc1ccc(Cc2cc([C@@H]3O[C@H](CO)[C@@H](O)[C@H](O)[C@H]3O)ccc2Cl)cc1 [Dapagliflozin, reference compound]","HbA1c, Median",[1],6.96%
same,"Subjects achieving HbA1c target of <6.5%, (%)",[1],15.57%
same,"Subjects achieving HbA1c target of <7%, %",[1],51.64%
same,"body weight, Median",[1],63.90 kg
same,"Subjects achieving therapeutic glycemic response 1, %","week 6, per-protocol set, response 1 = HbA1c change >0.5% or HbA1c <7%, enavogliflozin 0.3 mg, dapagliflozin 10 mg",81.97%
same,"Subjects achieving therapeutic glycemic response 2, %","week 6, per-protocol set, response 2 = HbA1c change >0.7% or HbA1c <7%, enavogliflozin 0.3 mg, dapagliflozin 10 mg",76.23%
same,"Subjects achieving therapeutic glycemic response 3, %","week 6, per-protocol set, response 3 = HbA1c change >1% or HbA1c <7%, enavogliflozin 0.3 mg, dapagliflozin 10 mg",63.93%
same,"FPG change from baseline, LS mean (SE)",week 12,−24.42(1.50) mg/dL
same,"HDL-C change from baseline, LS mean (SE)",week 12,2.84(0.60) mg/dL
same,"HOMA-β change from baseline, LS mean (SE)",week 12,5.23(1.90)
same,"HbA1c change from baseline, LS mean (SE)",week 12,−0.83(0.04) % p
same,"LDL-C change from baseline, LS mean (SE)",week 12,2.71(1.75) mg/dL
same,"UACR change from baseline, LS mean (SE)",week 12,−11.76(4.47) g/kg
same,"UGCR change from baseline, LS mean (SE)",week 12,44.84(2.02) mg/mg
same,"adiponectin change from baseline, LS mean (SE)",week 12,0.70(0.33) μg/mL
same,"body weight change from baseline, LS mean (SE)",week 12,−2.71(0.19) kg
same,"diastolic blood pressure change from baseline, LS mean (SE)",week 12,−2.26(0.66) mmHg
same,"fasting C-peptide change from baseline, LS mean (SE)",week 12,−0.07(0.02) ng/ml
same,"leptin change from baseline, LS mean (SE)",week 12,−1.69(0.47) ng/ml
same,"systolic blood pressure change from baseline, LS mean (SE)",week 12,−5.06(0.85) mmHg
same,"total cholesterol change from baseline, LS mean (SE)",week 12,5.40(1.98) mg/dL
same,"triglyceride change from baseline, LS mean (SE)",week 12,−12.02(5.12) mg/dL
same,"Change from baseline in HDL-C, ANCOVA LS mean",[2],2.84 mg/dL
same,"Change from baseline in HDL-C, Mean",[2],2.65 mg/dL
same,"Change from baseline in HDL-C, Median",[2],2.00 mg/dL
same,"Change from baseline in LDL-C, ANCOVA LS mean",[2],2.71 mg/dL
same,"Change from baseline in LDL-C, Mean",[2],2.45 mg/dL
same,"Change from baseline in LDL-C, Median",[2],4.00 mg/dL
same,"Change from baseline in total cholesterol, ANCOVA LS mean",[2],5.40 mg/dL
same,"Change from baseline in total cholesterol, Mean",[2],4.61 mg/dL
same,"Change from baseline in total cholesterol, Median",[2],6.00 mg/dL
same,"Change from baseline in triglycerides, ANCOVA LS mean",[2],12.02 mg/dL
same,"Change from baseline in triglycerides, Mean",[2],-16.03 mg/dL
same,"Change from baseline in triglycerides, Median",[2],-6.00 mg/dL
same,"Fasting HDL-C, Mean",[2],50.08 mg/dL
same,"Fasting HDL-C, Median",[2],49.00 mg/dL
same,"Fasting LDL-C, Mean",[2],79.86 mg/dL
same,"Fasting LDL-C, Median",[2],72.50 mg/dL
same,"Fasting total cholesterol, Mean",[2],148.41 mg/dL
same,"Fasting triglycerides, Mean",[2],116.46 mg/dL
same,"Fasting triglycerides, Median",[2],104.50 mg/dL
same,"fasting Total cholesterol, Median",[2],140.50 mg/dL
same,"Change from baseline in diastolic blood pressure, ANCOVA LS mean",[3],−2.26 mmHg
same,"Change from baseline in diastolic blood pressure, Mean",[3],−1.88 mmHg
same,"Change from baseline in diastolic blood pressure, Median",[3],−1.00 mmHg
same,"Diastolic blood pressure, Mean",[3],71.99 mmHg
same,"Diastolic blood pressure, Median",[3],72.00 mmHg
same,"Change from baseline in systolic blood pressure, ANCOVA LS mean",[4],−5.06 mmHg
same,"Change from baseline in systolic blood pressure, Mean",[4],−4.43 mmHg
same,"Change from baseline in systolic blood pressure, Median",[4],−4.00 mmHg
same,"Systolic blood pressure, Mean",[4],119.51 mmHg
same,"Systolic blood pressure, Median",[4],120.00 mmHg
same,"Adiponectin, Mean","week 12, per-protocol set",6.97 µg/mL
same,"Adiponectin, Median","week 12, per-protocol set",6.27 µg/mL
same,"Change from baseline in HOMA-IR, ANCOVA LS mean","week 12, per-protocol set",−1.05
same,"Change from baseline in HOMA-IR, Mean","week 12, per-protocol set",−1.06
same,"Change from baseline in HOMA-IR, Median","week 12, per-protocol set",−0.76
same,"Change from baseline in HOMA-β, ANCOVA LS mean","week 12, per-protocol set",5.23
same,"Change from baseline in HOMA-β, Mean","week 12, per-protocol set",4.70
same,"Change from baseline in HOMA-β, Median","week 12, per-protocol set",3.50
same,"Change from baseline in UACR, ANCOVA LS mean","week 12, per-protocol set",-11.76 g/kg
same,"Change from baseline in UACR, Mean","week 12, per-protocol set",-7.42 g/kg
same,"Change from baseline in UACR, Median","week 12, per-protocol set",0.20 g/kg
same,"Change from baseline in UGCR, ANCOVA LS mean","week 12, per-protocol set",44.84 mg/mg
same,"Change from baseline in UGCR, Mean","week 12, per-protocol set",43.19 mg/mg
same,"Change from baseline in UGCR, Median","week 12, per-protocol set",41.69 mg/mg
same,"Change from baseline in adiponectin, ANCOVA LS mean","week 12, per-protocol set",0.70 µg/mL
same,"Change from baseline in adiponectin, Mean","week 12, per-protocol set",0.63 µg/mL
same,"Change from baseline in adiponectin, Median","week 12, per-protocol set",0.43 µg/mL
same,"Change from baseline in leptin, ANCOVA LS mean","week 12, per-protocol set",-1.69 ng/mL
same,"Change from baseline in leptin, Mean","week 12, per-protocol set",-1.82 ng/mL
same,"Change from baseline in leptin, Median","week 12, per-protocol set",-0.96 ng/mL
same,"HOMA-IR (insulin resistance), Mean","week 12, per-protocol set",1.80
same,"HOMA-IR (insulin resistance), Median","week 12, per-protocol set",1.55
same,"HOMA-β (beta-cell function), Mean","week 12, per-protocol set",45.17
same,"HOMA-β (beta-cell function), Median","week 12, per-protocol set",38.20
same,"Leptin, Mean","week 12, per-protocol set",9.03 ng/mL
same,"Leptin, Median","week 12, per-protocol set",7.69 ng/mL
same,"UACR, Mean","week 12, per-protocol set",27.28 g/kg
same,"UACR, Median","week 12, per-protocol set",11.80 g/kg
same,"UGCR, Mean","week 12, per-protocol set",44.72 mg/mg
same,"UGCR, Median","week 12, per-protocol set",41.80 mg/mg
same,"Body weight, Mean",[5],64.64 kg
same,"Change from baseline in FPG, ANCOVA LS mean",[5],-24.42 mg/dL
same,"Change from baseline in FPG, Mean",[5],-25.28 mg/dL
same,"Change from baseline in FPG, Median",[5],-20.00 mg/dL
same,"Change from baseline in HbA1c, ANCOVA LS mean",[5],−0.83 % p
same,"Change from baseline in HbA1c, Mean",[5],−0.87 % p
same,"Change from baseline in HbA1c, Median",[5],−0.85 % p
same,"Change from baseline in body weight, ANCOVA LS mean",[5],-2.71 kg
same,"Change from baseline in body weight, Mean",[5],-2.58 kg
same,"Change from baseline in body weight, Median",[5],-2.50 kg
same,"Change from baseline in fasting C-peptide, ANCOVA LS mean",[5],-0.07 ng/mL
same,"Change from baseline in fasting C-peptide, Mean",[5],-0.06 ng/mL
same,"Change from baseline in fasting C-peptide, Median",[5],-0.03 ng/mL
same,"FPG, Mean",[5],115.24 mg/dL
same,"FPG, Median",[5],112.00 mg/dL
same,"Fasting C-peptide, Mean",[5],0.63 ng/mL
same,"Fasting C-peptide, Median",[5],0.60 ng/mL
same,"HbA1c, Mean",[5],6.96%
same,"HbA1c, Median",[5],6.84%
same,"Subjects achieving HbA1c target of <6.5%, (%)",[5],17.07%
